Each structure is given as a SMILES string.

Consider 2 molecules from patent US20260256772A1, “BENZOTHIAZOLE COMPOUND AND USE THEREOF” (NANJING REJU THERAPEUTICS, INC., priority 2022, published 2026).

One data set relates to hypertrophic scars. The data set is described as follows: Rabbit ear hypertrophic scar model. The format is in vivo, New Zealand white rabbits. The settings on record: 150 μM, 100 μL injected into each lesion once a week, 4 injections, FIG. 12. How it is done:
In this test example, the efficacy of the compounds of the present disclosure was tested on hypertrophic scars in a rabbit ear hypertrophic scar animal model. Briefly, 15 New Zealand white rabbits, male, 3 months old, were used. The New Zealand rabbits were anaesthetized with sodium pentobarbital and six circular full-thickness wounds with a diameter of 10 mm were made on the ventral surface of each ear by removing the epidermis, dermis and perichondrium to expose the cartilage. The rabbits were randomly divided into control, RX001 experimental and RX301 experimental groups. On postoperative day 14, after complete re-epithelialization of the wound surface, the compound (150 μM, 100 μL, dissolved in DMSO solution) or negative control DMSO 100 μL was injected into the center of each lesion from the wound edge once a week for a total of 4 injections. Improvement of scar formation by the drugs was assessed by SEI (Scar Excess Index).

For data set [1], the system named is wet-age-related macular degeneration. The data set is described as follows: CNV animal model of wet-age-related macular degeneration. The format is in vivo, mice. The settings on record: intravitreal (IVT), FIG. 5. On the procedure:
In this test example, the efficacy of the compounds of the present disclosure was tested on wet-age-related macular degeneration in a CNV animal model.
Male mice were administered 0.5% probacaine hydrochloride (Alcon) for local anesthesia, and 1% tropicamide to dilate the pupils of the mice. Laser cauterization was performed using a laser photocoagulator (Novus Varia, LUMENIS) with a slit lamp delivery system. And artificially torn adherent glass coverslips were used as contact lenses. Bleeding spots caused by lasers were not included in the statistics. In each experimental group, six mice were analyzed with four impacts per eye to overcome inherent variability.

Data set [2] relates to oxygen-induced retinopathy (OIR). As to the kind of experiment: Mouse model of oxygen-induced retinopathy (OIR). The format is in vivo. Conditions: intravitreal (IVT), 1 μL of 200 μM at P12, read at P17, FIG. 3. How it is done: The efficacy of the prodrugs RX001-RX006 as well as RX301 were investigated in a mouse model of oxygen-induced retinopathy (OIR) which to some extent indicates an in vivo model of retinopathy of prematurity (ROP), diabetic retinopathy, and wet age-related macular degeneration.
From postnatal Day 7 (P7) to Day 12 (P12), C57Bl/6 mouse pups and their CD 1 foster mothers were exposed to hyperoxia (75% 02). At P12, the animals were injected intravitreally with 1 μL of the test composition formulated in 1% DMSO, 10% Tween 80, and 20% PEG-400 (200 μM of the compound) and returned to room air until day 17 (P17). On P17, the eyeballs were enucleated, and the retinas were dissected for vascular staining. To determine the area of avascularity or angiogenesis, the retinas were flattened and stained with isolectin B4 (IB4).

For the next data set, the system named is platelets. As to the kind of experiment: Platelet toxicity test in mice (platelet count). The format is in vivo. The settings on record: mice, 0.5 mg/kg single intraperitoneal injection, blood at 6 hours, FIG. 1. How it is done: In this test example, C57 mice were chosen to detect the effect of the target compounds on platelets.
7 to 8 weeks old […] mice were randomly divided into vehicle group and compound group. The test compound (0.5 mg/kg) or blank vehicle was administrated via single intraperitoneal injection. Blood was collected from the retroorbital venous plexus of the mice at 6 hours, and placed in a blood routine tube containing anticoagulant EDTA-K2. After shaking gently, the blood physiological indicators were measured using a hematology analyzer, with the platelet count as the target parameter for this platelet toxicity test.

Take `CCN1CCN(C(=O)c2nc(N3CCc4cccc(C(=O)Nc5nc6ccccc6s5)c4C3)ccc2-c2cnn(CC34CC5CC(CC(C5)C3)C4)c2C)CC1` [RX001]: the scar excess index result with hypertrophic scars is “statistically significant improvement”. For the same molecule, in data set [1], the fluorescence intensity indicators result is on record as “statistically significant improvements”.

On to `Cc1c(-c2ccc(N3CCc4cccc(C(=O)Nc5nc6ccccc6s5)c4C3)nc2C(=O)N2CCC(CCOP(=O)(O)O)CC2)cnn1CC12CC3CC(CC(C3)C1)C2` [RX301], for which the scar excess index result with hypertrophic scars is “statistically significant improvement”. Moreover, the fluorescence intensity indicators entry in data set [1] is listed as “statistically significant improvements”. Moreover, in data set [2], the angiogenesis result is on record as “statistically significant improvements” and the avascular zone result was “statistically significant improvements”. Moreover, in the data set on platelets, the “platelet toxicity (platelet count)” value was “significantly improved”.
